The values that follow come from patent US11773078B2, “Furin inhibitors” (Glaxosmithkline Intellectual Property Development Limited, priority 2018, dated 2023).

Counter-ions that a name gives are not always drawn. Bounds are passed on as bounds.

The target in test [1] is T1, furin (endogenous protease) in U20S cells (Homo sapiens, UniProt P09958).
T1 construct: the endogenous protease cleaves GFP; endogenous in cells; host or cells: U2OS cells transduced with a BacMam reporter
Description: Furin cell-based assay (image-based, Golgi-targeted GFP with BMP10 furin/PCSK cleavage site).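 Also: Read-out is mean GFP fluorescence of Golgi puncta per cell by high-content imaging, retained when furin inhibited, over an eleven-point 0.00017–10 µM series, four-parameter fit.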 Particulars: 24-hour incubation, read-out: furin golgi cell pXC50 (converted).
Description: This assay uses an image-based platform to evaluate the intracellular activity of compounds of the invention. Reactions were performed in black 384-well, tissue culture-treated, clear bottom plates (Greiner). Compounds under analysis were dissolved in DMSO (1.0 mM) and serially diluted 1 to 3 with DMSO through eleven dilutions. This creates a final compound concentration range from 0.00017 to 10 μM, and 0.1 μL of each concentration was transferred to the corresponding well of the assay plate. Assays were initiated by the addition of U20S cells simultaneously transduced with a BacMam-delivered construct containing a Golgi-targeting sequence followed by a 12-amino acid furin/PCSK cleavage site from Bone Morphogenic Protein 10 (BMP10) and then GFP at the C terminus. […] Briefly, frozen cells are thawed in assay media (Dulbecco's Modified Eagles Medium Nutritional Mixture F-12 (Ham) without phenol red containing 5% FBS) and diluted to deliver 6000 cells/well (50 μL) to the plate using a Multidrop Combi (Thermo).
After a 24-hour incubation period at 37° C., the cells are stained with Cell Mask Deep Red, fixed in paraformaldehyde and the nuclei stained using Ho33342. The Golgi-targeted GFP forms bright punctate clusters within the cell. In the absence of a furin inhibitor, the endogenous protease cleaves GFP from its N-acetylgalactosaminyltransferase-2 Golgi tether, releasing GFP into the Golgi lumen where fluorescence is diluted below the threshold of assay sensitivity. […] Cellular GFP intensity is determined by image-based acquisition (Incell 2200, Perkin Elmer) at 40× magnification with 4 fields measured per well. Multi-scale tophat segmentation is used to identify the GFP-tagged puncta and to quantitate the average fluorescence of all puncta on a per cell basis. Cellular toxicity is determined in parallel.
Data were analyzed using AbaseXE 7.3, utilizing a four-parameter curve fit equation. The following values were used to define limits and/or constraints for each of the four parameters: • Minimum—limit −10 to 10 • Maximum—90 to 110 • Slope—limit 0.5 to 2.0 • pXC50 confidence interval—10
Raw counts obtained from the respective plate reader (Perkin Elmer) were captured for data analysis. Curves were generated using the equation: Y=A+[(B−A)/(1+(10^C/x)^D)] • where: A=minimum response • B=maximum response • C=log 10*XC50 • D=slope factor • x=log 10 compound concentration [M]
The results were recorded as pXC50 values (−C in the above equation)

The target of test [2] is T2, Furin (108-574-Tev-Flag-His) enzyme (Homo sapiens, UniProt P09958).
T2 construct: Furin (108-574-Tev-Flag-His) enzyme was expressed and purified from CHO cells; TEV cleavage site (C); FLAG (C); His (C); made in house; host or cells: CHO cells
T2 sequence (P09958 108-574): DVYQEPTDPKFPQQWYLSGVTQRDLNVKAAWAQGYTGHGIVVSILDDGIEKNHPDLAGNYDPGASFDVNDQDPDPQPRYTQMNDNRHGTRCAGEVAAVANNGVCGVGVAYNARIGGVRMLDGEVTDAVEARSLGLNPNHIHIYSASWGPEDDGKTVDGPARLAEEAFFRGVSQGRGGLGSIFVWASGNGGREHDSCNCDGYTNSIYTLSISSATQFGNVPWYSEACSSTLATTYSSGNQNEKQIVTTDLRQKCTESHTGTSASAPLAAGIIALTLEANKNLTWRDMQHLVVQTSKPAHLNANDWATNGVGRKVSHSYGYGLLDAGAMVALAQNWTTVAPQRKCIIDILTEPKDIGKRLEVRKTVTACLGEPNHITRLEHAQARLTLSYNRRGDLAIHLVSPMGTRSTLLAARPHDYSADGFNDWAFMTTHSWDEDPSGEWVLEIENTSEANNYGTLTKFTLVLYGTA
As to the kind of experiment: Furin enzyme assay. Particulars: for IC50: read-out: furin enzyme pIC50 (converted). It is filed as biochemical. A digest of the protocol:
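Compounds ran as 11-point threefold dilutions (0.00017–10 μM final) against 40 pM furin, purified from CHO cells, for 2 h at room temperature. Buffer: 100 mM HEPES pH7.5 with 1 mM CaCl2 and 0.005% Triton X-100. Envision readout. Four-parameter curve gives pXC50.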

T1 sequence (P09958 108-794): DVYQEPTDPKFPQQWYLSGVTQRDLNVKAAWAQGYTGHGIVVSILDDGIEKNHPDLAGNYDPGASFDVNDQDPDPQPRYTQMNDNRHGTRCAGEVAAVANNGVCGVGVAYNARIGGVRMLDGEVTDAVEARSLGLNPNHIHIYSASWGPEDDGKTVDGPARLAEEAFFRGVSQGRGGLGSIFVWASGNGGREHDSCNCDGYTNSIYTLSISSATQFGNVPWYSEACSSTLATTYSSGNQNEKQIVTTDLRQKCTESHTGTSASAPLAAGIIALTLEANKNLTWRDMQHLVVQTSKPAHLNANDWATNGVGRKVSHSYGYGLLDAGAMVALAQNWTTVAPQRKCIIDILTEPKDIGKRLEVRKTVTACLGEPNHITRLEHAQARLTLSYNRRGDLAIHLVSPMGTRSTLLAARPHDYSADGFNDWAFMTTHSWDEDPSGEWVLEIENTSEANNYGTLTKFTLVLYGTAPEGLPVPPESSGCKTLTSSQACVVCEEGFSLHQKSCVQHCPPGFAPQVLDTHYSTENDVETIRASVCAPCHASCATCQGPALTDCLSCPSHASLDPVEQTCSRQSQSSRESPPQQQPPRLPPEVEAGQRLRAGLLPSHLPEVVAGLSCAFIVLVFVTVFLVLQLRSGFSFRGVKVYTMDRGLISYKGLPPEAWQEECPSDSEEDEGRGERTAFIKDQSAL

For `CC(=O)NCC1CCN(Cc2cc(Oc3ccc(N4CCN(CCC(C)S(C)(=O)=O)CC4)nc3)nc(-c3cc(Cl)cc(Cl)c3)c2)CC1` (stereo not shown) [Example 218, N-((1-((2-(3,5-dichlorophenyl)-6-((6-(4-(3-(methylsulfonyl)butyl)piperazin-1-yl)pyridin-3-yl)oxy)pyridin-4-yl)methyl)piperidin-4-yl)methyl)acetamide], in test [1], the EC50 is 2 nM. For the same molecule, in test [2], the “furin enzyme pIC50” value was 10.1.

On to `CC(=O)NCC1CCN(Cc2cc(Oc3ccc(N4CCN(CCCC(=O)O)CC4)nc3)nc(-c3cc(Cl)cc(Cl)c3)c2)CC1` [Example 249, 4-(4-(5-((4-((4-(acetamidomethyl)piperidin-1-yl)methyl)-6-(3,5-dichlorophenyl)pyridin-2-yl)oxy)pyridin-2-yl)piperazin-1-yl)butanoic acid], for which, in test [1], the EC50 was 12.6 nM. The “furin enzyme pIC50” value in test [2] amounted to 9.1.

As to `COC1CN(C)CCN(c2ncc(Oc3cc(CN4CCC(CC(=O)O)CC4)cc(-c4cc(Cl)cc(Cl)c4)n3)cn2)C1` (stereo not shown) [Example 144, 2-(1-((2-(3,5-dichlorophenyl)-6-((2-(6-methoxy-4-methyl-1,4-diazepan-1-yl)pyrimidin-5-yl)oxy)pyridin-4-yl)methyl)piperidin-4-yl)acetic acid], in test [1], the EC50 is 7.94 nM. Also, in test [2], the “furin enzyme pIC50” value amounted to 8.5.

Turning to `CP(C)(=O)CC1CCN(Cc2cc(Oc3ccc(N4CCN(CCC(=O)O)CC4)nc3)nc(-c3cc(Cl)cc(Cl)c3)c2)CC1` [Example 85, 3-(4-(5-((6-(3,5-dichlorophenyl)-4-((4-((dimethylphosphoryl)methyl)piperidin-1-yl)methyl)pyridin-2-yl)oxy)pyridin-2-yl)piperazin-1-yl)propanoic acid], in test [1], the EC50 was 158 nM. Moreover, in test [2], the “furin enzyme pIC50” value worked out at 8.1.

Consider `COC(=O)NCC1CCN(Cc2cc(Oc3ccc(N4CCNCC4)nc3)nc(-c3cc(Cl)cc(Cl)c3)c2)CC1` [Example 76, Methyl 1(1-((2-(3,5-dichlorophenyl)-6-((6-(piperazin-1-yl)pyridin-3-yl)oxy)pyridin-4-yl)methyl)piperidin-4-yl)methyl)carbamate, 4 hydrochloride], for which the EC50 in test [1] was 10 nM. In addition, the “furin enzyme pIC50” value in test [2] was 8.4.

Turning to `CNC1CCN(c2ccc(Oc3cc(CNCCOC)cc(-c4cc(Cl)cc(Cl)c4)c3)cn2)CC1` [Example 97, 1-(5-((3′,5′-Dichloro-5-(((2-methoxyethyl)amino)methyl)-[1,1′-biphenyl]-3-yl)oxy)pyridin-2-yl)-N-methylpiperidin-4-amine], the EC50 in test [1] is 25.1 nM. Also, in test [2], the “furin enzyme pIC50” value was found to be 8.4.

On to `CNC(=O)NCC1CCN(Cc2cc(Oc3cnc(N4CCN(CCC(C)[S+](C)[O-])CC4)nc3)nc(-c3cc(Cl)cc(Cl)c3)c2)CC1` (stereo not shown) [Example 17, 1-((1-((2-(3,5-dichlorophenyl)-6-((2-(4-(3-(methylsulfinyl)butyl)piperazin-1-yl)pyrimidin-5-yl)oxy)pyridin-4-yl)methyl)piperidin-4-yl)methyl)-3-methylurea], for which the EC50 in test [1] is 2 nM. Also, the IC50 in test [2] is 0.0316 nM.

In the case of `CC(=O)NCC1CCN(Cc2cc(Oc3ccc(N4CCNCC4)nc3)nc(-c3cc(Cl)cc(Cl)c3)c2)CC1` [Example 9, N-((1-((2-(3,5-Dichlorophenyl)-6-((6-(piperazin-1-yl)pyridin-3-yl)oxy)pyridin-4-yl)methyl)piperidin-4-yl)methyl)acetamide, 4 hydrochloride], the EC50 in test [1] was 7.94 nM. Besides, the “furin enzyme pIC50” value in test [2] was 9.2.

Turning to `CC(=O)NCC1CCN(Cc2cc(Oc3cnc(N4CCNCC4)cn3)nc(-c3cc(Cl)cc(Cl)c3)c2)CC1` [Example 109, N-((1-((2-(3,5-Dichlorophenyl)-6-((5-(piperazin-1-yl)pyrazin-2-yl)oxy)pyridin-4-yl)methyl)piperidin-4-yl)methyl)acetamide], the EC50 in test [1] is 15.8 nM. Moreover, the “furin enzyme pIC50” value in test [2] is on record as 9.6.

For the molecule `CC(=O)NCC1CCN(Cc2cc(Oc3ccc(N4CCN(CCC(=O)O)CC4)nc3)cc(-c3cc(Cl)cc(Cl)c3)c2)CC1` [Example 258, 3-(4-(5-((5-((4-(acetamidomethyl)piperidin-1-yl)methyl)-3′,5′-dichloro-[1,1′-biphenyl]-3-yl)oxy)pyridin-2-yl)piperazin-1-yl)propanoic acid], in test [1], the EC50 is 31.6 nM. Besides, in test [2], the “furin enzyme pIC50” value is on record as 9.6.

Take `CC(=O)NCC1CCN(Cc2cc(Oc3cnc(N4CCN(CCCO)CC4)nc3)cc(-c3cc(Cl)cc(Cl)c3)c2)CC1` [Example 113, N-((1-((3′,5′-Dichloro-5-((2-(4-(3-hydroxypropyl)piperazin-1-yl)pyrimidin-5-yl)oxy)-[1,1′-biphenyl]-3-yl)methyl)piperidin-4-yl)methyl)acetamide]: in test [1], the EC50 is 12.6 nM. The IC50 in test [2] is less than 0.158 nM.

As for `CC(=O)NCC1CCN(Cc2cc(Oc3ccc(N4CCN(CCCS(C)(=O)=O)CC4)nc3)nc(-c3cc(Cl)cc(Cl)c3)c2)CC1` [Example 251, N-((1-((2-(3,5-dichlorophenyl)-6-((6-(4-(3-(methylsulfonyl)propyl)piperazin-1-yl)pyridin-3-yl)oxy)pyridin-4-yl)methyl)piperidin-4-yl)methyl)acetamide], the EC50 in test [1] is 5.01 nM. For the same molecule, the IC50 in test [2] is less than 0.158 nM.

For `CC(=O)NCC1CCN(Cc2cc(Oc3cnc(N4CC5CCC(C4)N5C)nc3)nc(-c3cc(Cl)cc(Cl)c3)c2)CC1` [Example 71, N-((1-((2-(3,5-dichlorophenyl)-6-((2-(8-methyl-3,8-diazabicyclo[3.2.1]octan-3-yl)pyrimidin-5-yl)oxy)pyridin-4-yl)methyl)piperidin-4-yl)methyl)acetamide], the EC50 in test [1] was 1.58 nM. The IC50 in test [2] is 0.2 nM.

Turning to `CNC(=O)NCC1CCN(Cc2cc(Oc3cnc(N4CCN(C5CC(C(=O)O)C5)CC4)nc3)nc(-c3cc(Cl)cc(Cl)c3)c2)CC1` (stereo not shown) [Example 221, 3-(4-(5-((6-(3,5-dichlorophenyl)-4-((4-((3-methylureido)methyl)piperidin-1-yl)methyl)pyridin-2-yl)oxy)pyrimidin-2-yl)piperazin-1-yl)cyclobutanecarboxylic acid], the EC50 in test [1] was 5.01 nM. In addition, in test [2], the “furin enzyme pIC50” value was 10.4.

Take `O=C(O)CCC1CCN(Cc2cc(Oc3cnc(N4CCN(CCO)CC4)nc3)cc(-c3cc(Cl)cc(Cl)c3)c2)CC1` [Example 114, 3-(1-((3′,5′-Dichloro-5-((2-(4-(2-hydroxyethyl)piperazin-1-yl)pyrimidin-5-yl)oxy)-[1,1′-biphenyl]-3-yl)methyl)piperidin-4-yl)propanoic acid]: in test [1], the EC50 is 20 nM. The IC50 in test [2] was less than 0.158 nM.

Take `CNC(=O)OCC1CCN(Cc2cc(Oc3ccc(N4CCNCC4)nc3)nc(-c3cc(Cl)cc(Cl)c3)c2)CC1` [Example 74, (1-((2-(3,5-Dichlorophenyl)-6-((6-(piperazin-1-yl)pyridin-3-yl)oxy)pyridin-4-yl)methyl)piperidin-4-yl)methyl methylcarbamate, 4 hydrochloride]: the EC50 in test [1] is 6.31 nM. Also, in test [2], the “furin enzyme pIC50” value is on record as 8.4.

Turning to `CC(=O)NCC1CCN(Cc2cc(Oc3ccc(N4CCN(CC(C)(C)C(=O)O)CC4)nc3)nc(-c3cc(Cl)cc(Cl)c3)c2)CC1` [Example 189, 3-(4-(5-((4-((4-(acetamidomethyl)piperidin-1-yl)methyl)-6-(3,5-dichlorophenyl)pyridin-2-yl)oxy)pyridin-2-yl)piperazin-1-yl)-2,2-dimethylpropanoic acid], in test [1], the EC50 is 31.6 nM. Further, the “furin enzyme pIC50” value in test [2] was determined as 8.7.
